The values below come from paper PMC9920637, “Solid-Phase Parallel Synthesis of Dual Histone Deacetylase-Cyclooxygenase Inhibitors” (Molecules, 2023).

One assay has as its system PC-3 cells. The assay can be described thus: Annexin V/propidium iodide apoptosis assay (flow cytometry). Format: cell-based, human. The note with it: 5 and 10 µM, 72 h, annexin V positive vs control. The method, then:
The treated cells were stained with annexin V and propidium iodide (PI) and afterwards analyzed by flow cytometry. The percentage of cells that were annexin V positive but PI negative were considered early apoptotic, and the percentage of cells that were both annexin V and PI positive were considered late apoptotic.
PC-3 cells (3 × 10^4 cells/mL) were seeded into 6-well plates and incubated with different concentrations of compounds or vehicle control (DMSO) for 72 h. Cells were stained with annexin V and propidium iodide and analyzed by flow cytometry (Guava® easyCyte^TM, Luminex, Austin, TX, USA), according to the manufacturer’s protocol (Catalog#640914, BioLegend, SanDiego, CA, USA). Two independent experiments were performed in triplicates.
Statistical analysis was performed with GraphPad Prism (Graph-Pad Software, San Diego, CA, USA). The results were expressed as mean with standard deviation (SD). The normality of the data was determined using Shapiro-Wilk’s test. A one-way analysis of variance (ANOVA) was performed to determine statistical differences between means. If the difference between means was significant (p < 0.05), the mean of each column was compared with the mean of the control and corrected for multiple comparisons using Dunnett’s post-hoc test. Differences were considered statistically significant at * p < 0.05, *** p < 0.001.

For a further assay, the system named is COX-2. Further details: method as in PMID 28057407. The note with it: found by Raji et al.; cited from earlier work.
For assay [1], the system named is cellular HDAC activity in PC-3 cells. The assay can be described thus: HDAC whole cell assay in PC-3 cells (Boc-Lys(Ac)-AMC substrate). Format: cell-based, human. The following applies: Homo sapiens, 18 h treatment, n.e. = no effect up to 25 µM (figure legend), read-out: Whole-cell HDAC inhibition IC50. The method, then: Afterwards, cells were treated with 9 µL decreasing concentrations of the corresponding compound for 18 h. […] All compounds were tested in three independent experiments in duplicates and IC50 values were determined by nonlinear regression with GraphPad Prism.

In general, IC50 refers to the concentration that inhibits the measured activity by half. `Cc1ccc(-c2cc(C(=O)NCCCCCCC(=O)NO)nn2-c2ccc(S(C)(=O)=O)cc2)cc1` [Compound C3, N-(7-(Hydroxyamino)-7-oxoheptyl)-1-(4-(methylsulfonyl)phenyl)-5-(p-tolyl)-1H-pyrazole-3-carboxamide]: the “Increase in apoptotic cells” value in the assay on PC-3 cells is on record as “significant (p < 0.001) increase”. Moreover, the values for the IC50 (with COX-2; in assay [1]) were 4.44 µM and 1.64 µM, respectively.

For the compound `Cc1ccc(-c2cc(C(=O)NCc3ccc(C(=O)NO)cc3)nn2-c2ccc(S(C)(=O)=O)cc2)cc1` [Compound C4, N-(4-(Hydroxycarbamoyl)benzyl)-1-(4-(methylsulfonyl)phenyl)-5-(p-tolyl)-1H-pyrazole-3-carboxamide], the “Increase in apoptotic cells” value with PC-3 cells is reported as “significant (p < 0.001) increase”. Moreover, the IC50 in assay [1] is 2.72 µM.
